Laboratory results as given in US5294718A, “Piperidino-3,4-dihydrocarbostyril compounds” (Kissei Pharmaceutical Co., Ltd., priority 1993, dated 1994).

These compounds were tested on Adenosine Diphosphate (ADP)-Induced Platelet Aggregation (assay: Inhibitory Effect on Adenosine Diphosphate (ADP)-Induced Platelet Aggregation (turbidimetric method, platelet rich plasma)). Conditions: Oryctolagus cuniculus; rabbit platelet rich plasma; aggregation induced by 20 μM ADP; read-out: concentration at which the compound inhibited 50% of platelet aggregation (IC50).
Assay type: cell-based, Japanese White rabbit
Protocol: Platelet rich plasma (PRP) was prepared from Japanese White rabbit blood drawn from the carotid artery into a syringe containing 3.8% sodium citrate (1/10) volume, and centrifuged at 400×g for 10 min. Platelet aggregation in PRP was induced by 20 μM ADP and determined by the turbidimetric method using an aggregomater (Hema-Tracer: Niko Bioscience Co., Ltd., Japan).

Row | Structure (SMILES) | IC50 [µM]
1 | O=C1CCc2c(ccc(N3CCC(O)CC3)c2[N+](=O)[O-])N1 [Compound 2, 6-(4-Hydroxypiperidino)-5-nitro-3,4-dihydrocarbostyril] | 55
2 | O=C1CCc2cc(N3CCC(O)CC3)c(Br)cc2N1 [Compound 3, 7-Bromo-6-(4-hydroxypiperidino)-3,4-dihydrocarbostyril] | 26
3 | O=C1CCc2cc(N3CCC(O)CC3)c(Cl)cc2N1 [Compound 5, 7-Chloro-6-(4-hydroxypiperidino)-3,4-dihydrocarbostyril] | 26
4 | N#Cc1cc2c(cc1N1CCC(O)CC1)CCC(=O)N2 [Compound 7, 7-Cyano-6-(4-hydroxypiperidino)-3,4-dihydrocarbostyril] | 18
5 | COC(=O)c1cc2c(cc1N1CCC(O)CC1)CCC(=O)N2 [Compound 8, 6-(4-Hydroxypiperidino)-7-methoxycarbonyl-3,4-dihydrocarbostyril] | 42
6 | Cc1cc2c(cc1N1CCC(O)CC1)CCC(=O)N2 [Compound 9, 6-(4-Hydroxypiperidino)-7-methyl-3,4-dihydrocarbostyril] | 130
7 | O=C1CCc2cc(N3CCC(O)CC3)c(F)cc2N1 [Compound 10, 7-Fluoro-6-(4-hydroxypiperidino)-3,4-dihydrocarbostyril] | 51

The remaining compounds from weak to strong by IC50, led by results:

Row | IC50 [µM] | Structure (SMILES)
8 | 290 | O=C1CCc2c(ccc(N3CCC(O)CC3)c2Cl)N1 [Compound 6, 5-Chloro-6-(4-hydroxypiperidino)-3,4-dihydrocarbostyril]
9 | 140 | O=C1CCc2c(ccc(N3CCC(O)CC3)c2Br)N1 [Compound 4, 5-Bromo-6-(4-hydroxypiperidino)-3,4-dihydrocarbostyril]
10 | 39 | O=C1CCc2cc(N3CCC(O)CC3)c(C(F)(F)F)cc2N1 [Compound 12, 6-(4-Hydroxypiperidino)-7-trifluoromethyl-3,4-dihydrocarbostyril]
11 | 37 | O=C1CCc2cc(N3CCC(O)CC3)c([N+](=O)[O-])cc2N1 [Compound 1, 6-(4-Hydroxypiperidino)-7-nitro-3,4-dihydrocarbostyril]
12 | 37 | CCC(=O)OC1CCN(c2cc3c(cc2[N+](=O)[O-])NC(=O)CC3)CC1 [Compound 11, 6-(4-Propionyloxypiperidino)-7-nitro-3,4-dihydrocabostyril]
